From ChEMBL document CHEMBL4476867, “Hydroxy formamide derivatives and their use” (2016) come the findings set out here.

Type in all cases: cell-based
One assay addresses T1, Tolloid-like protein 2 (Homo sapiens, UniProt Q9Y6L7).
T1 sequence (Q9Y6L7 whole entry): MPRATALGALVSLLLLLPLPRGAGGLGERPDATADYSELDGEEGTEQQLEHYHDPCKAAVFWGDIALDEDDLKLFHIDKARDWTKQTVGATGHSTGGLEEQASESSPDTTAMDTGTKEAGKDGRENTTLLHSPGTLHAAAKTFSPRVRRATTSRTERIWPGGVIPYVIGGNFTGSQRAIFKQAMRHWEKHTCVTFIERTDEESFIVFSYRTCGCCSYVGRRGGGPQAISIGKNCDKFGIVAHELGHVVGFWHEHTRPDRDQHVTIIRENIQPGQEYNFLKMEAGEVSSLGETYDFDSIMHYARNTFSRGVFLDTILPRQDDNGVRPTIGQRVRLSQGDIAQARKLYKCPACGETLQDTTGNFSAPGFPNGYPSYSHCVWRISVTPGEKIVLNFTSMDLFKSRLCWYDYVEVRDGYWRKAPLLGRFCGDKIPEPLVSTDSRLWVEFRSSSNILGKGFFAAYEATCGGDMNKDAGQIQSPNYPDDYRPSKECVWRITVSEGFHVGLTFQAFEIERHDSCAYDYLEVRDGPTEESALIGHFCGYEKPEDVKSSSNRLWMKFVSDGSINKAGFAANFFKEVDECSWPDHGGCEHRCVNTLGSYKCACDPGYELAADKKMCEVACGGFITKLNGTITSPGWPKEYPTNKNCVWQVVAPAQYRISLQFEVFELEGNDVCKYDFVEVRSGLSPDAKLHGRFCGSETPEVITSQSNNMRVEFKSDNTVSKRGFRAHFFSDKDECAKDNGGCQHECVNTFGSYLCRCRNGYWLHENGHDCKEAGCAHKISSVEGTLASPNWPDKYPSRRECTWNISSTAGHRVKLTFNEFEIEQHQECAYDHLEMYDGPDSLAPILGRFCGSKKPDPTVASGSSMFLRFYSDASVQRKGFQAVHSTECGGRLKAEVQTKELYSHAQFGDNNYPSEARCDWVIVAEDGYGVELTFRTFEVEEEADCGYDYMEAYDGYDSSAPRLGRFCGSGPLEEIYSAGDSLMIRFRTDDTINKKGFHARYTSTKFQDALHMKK
Put plainly: Inhibition of C-terminal Avi-6x-His epitope tagged and N-terminal human RAGE signal sequence tagged recombinant human TLL2 (26 to 1015 amino acids) expressed in CHOE1A cells incubated for 60 mins with promyostatin peptide substrate by FRET based assay.

A further assay concerns the target Tolloid-like protein 1 (Homo sapiens, UniProt O43897, I156V/N221S/V284A). Nature of the assay: Inhibition of recombinant human TLL1 I156V/N221S/V284A mutant expressed in CHOE1A cells pre-incubated for 10 mins before promyostatin peptide substrate addition and measured after 60 mins by FRET based assay.
In assay [1] the target is T2, Bone morphogenetic protein 1 (Homo sapiens, UniProt P13497).
T2 sequence (P13497 whole entry): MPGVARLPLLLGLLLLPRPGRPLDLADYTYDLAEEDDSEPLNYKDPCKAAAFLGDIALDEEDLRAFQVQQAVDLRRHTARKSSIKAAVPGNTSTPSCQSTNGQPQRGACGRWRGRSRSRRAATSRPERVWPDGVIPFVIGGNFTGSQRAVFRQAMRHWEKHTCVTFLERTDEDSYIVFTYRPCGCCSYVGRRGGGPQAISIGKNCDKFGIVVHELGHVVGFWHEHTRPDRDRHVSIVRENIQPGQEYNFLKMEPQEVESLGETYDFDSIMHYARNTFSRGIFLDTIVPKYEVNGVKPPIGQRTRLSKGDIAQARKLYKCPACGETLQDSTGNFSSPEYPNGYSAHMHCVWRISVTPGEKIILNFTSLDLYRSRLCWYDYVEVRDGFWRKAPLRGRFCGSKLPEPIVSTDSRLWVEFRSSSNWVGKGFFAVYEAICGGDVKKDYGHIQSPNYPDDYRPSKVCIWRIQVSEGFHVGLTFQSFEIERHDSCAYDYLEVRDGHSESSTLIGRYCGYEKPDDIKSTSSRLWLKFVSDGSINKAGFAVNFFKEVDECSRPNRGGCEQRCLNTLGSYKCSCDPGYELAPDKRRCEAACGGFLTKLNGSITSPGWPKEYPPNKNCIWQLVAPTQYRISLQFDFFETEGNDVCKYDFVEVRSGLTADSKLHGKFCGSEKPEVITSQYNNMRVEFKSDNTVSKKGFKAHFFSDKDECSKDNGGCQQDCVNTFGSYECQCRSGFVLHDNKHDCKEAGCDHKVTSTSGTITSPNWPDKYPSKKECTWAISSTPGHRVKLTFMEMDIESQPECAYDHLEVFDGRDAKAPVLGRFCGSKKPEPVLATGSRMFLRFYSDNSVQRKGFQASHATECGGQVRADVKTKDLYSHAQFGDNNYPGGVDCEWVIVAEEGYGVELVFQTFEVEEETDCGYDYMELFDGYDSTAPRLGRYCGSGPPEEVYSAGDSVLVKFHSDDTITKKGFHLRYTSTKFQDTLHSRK
Put plainly: Inhibition of C-terminal FLAG-6x-His epitope tagged and N-terminal human RAGE signal sequence tagged human BMP1 (23 to 721 amino acids) expressed in CHO-E1 cells pre-incubated for 10 mins before promyostatin peptide substrate addition and measured after 60 mins using 0.5 nM BMP1 by FRET based assay.

For assay [2], the target named is T2, Bone morphogenetic protein 1. Put plainly: Inhibition of C-terminal FLAG-6x-His epitope tagged and N-terminal human RAGE signal sequence tagged human BMP1 (23 to 721 amino acids) expressed in CHO-E1 cells pre-incubated for 10 mins before promyostatin peptide substrate addition and measured after 30 mins using 50 nM BMP1 by FRET based assay.

What is called IC50 is the concentration needed to halve the response being measured. A word on the pIC50: it is −log10 of the IC50, conventionally taken in molar units. High values mean a small IC50, low ones a large IC50.

Chain of Tolloid-like protein 1 (O43897 148-1013 I156V/N221S/V284A limits assumed): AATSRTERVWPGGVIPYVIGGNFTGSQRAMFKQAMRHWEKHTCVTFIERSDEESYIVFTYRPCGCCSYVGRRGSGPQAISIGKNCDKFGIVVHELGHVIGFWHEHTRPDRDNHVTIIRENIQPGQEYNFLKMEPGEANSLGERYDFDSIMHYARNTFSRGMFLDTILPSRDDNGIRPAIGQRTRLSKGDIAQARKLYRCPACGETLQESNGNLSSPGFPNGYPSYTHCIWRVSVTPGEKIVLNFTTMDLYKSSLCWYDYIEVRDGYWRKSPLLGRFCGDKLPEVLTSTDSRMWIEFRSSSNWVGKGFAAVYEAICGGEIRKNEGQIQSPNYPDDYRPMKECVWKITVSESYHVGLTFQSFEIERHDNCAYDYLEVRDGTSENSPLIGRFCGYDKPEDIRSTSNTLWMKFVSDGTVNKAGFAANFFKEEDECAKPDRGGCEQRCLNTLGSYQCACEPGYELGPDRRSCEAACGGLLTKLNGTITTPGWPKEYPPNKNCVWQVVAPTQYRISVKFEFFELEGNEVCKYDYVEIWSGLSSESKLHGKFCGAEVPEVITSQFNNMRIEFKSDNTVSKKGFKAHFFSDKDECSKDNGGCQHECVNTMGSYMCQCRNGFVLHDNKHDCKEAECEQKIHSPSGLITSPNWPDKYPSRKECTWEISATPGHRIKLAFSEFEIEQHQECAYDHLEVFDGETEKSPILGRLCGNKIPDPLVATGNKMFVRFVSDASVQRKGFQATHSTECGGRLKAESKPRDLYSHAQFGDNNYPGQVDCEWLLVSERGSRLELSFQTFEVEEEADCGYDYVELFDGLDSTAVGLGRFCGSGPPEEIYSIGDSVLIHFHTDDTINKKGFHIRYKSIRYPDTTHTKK

For `CCCCC[C@H](CN(O)C=O)C(=O)NCNC(=O)c1ccc(-c2cccc(OC)c2)o1`, the 50% inhibitory concentration (IC50) at Tolloid-like protein 2 was less than 794 nM; at Tolloid-like protein 1, less than 398 nM; in assay [1], less than 126 nM; in assay [2], less than 200 nM.
With `CCCCC[C@H](CN(O)C=O)C(=O)NCNC(=O)c1ccc(-c2ccccc2OC)o1`, the IC50 at Tolloid-like protein 2 was less than 794 nM; on Tolloid-like protein 1 it was less than 398 nM; in assay [1] it was less than 126 nM; in assay [2] it was less than 200 nM.
Regarding `CCCCC[C@H](CN(O)C=O)C(=O)NCNC(=O)c1ccc(-c2ccc(F)c(OC)c2)o1`, the IC50 was less than 794 nM at Tolloid-like protein 2, less than 398 nM at Tolloid-like protein 1, less than 126 nM in assay [1] and less than 200 nM in assay [2].
Turning to `O=CN(O)C[C@@H](CCc1ccccc1)C(=O)NCNC(=O)c1ccc(-c2ccccc2)o1`, the IC50 is less than 794 nM on Tolloid-like protein 2, less than 398 nM at Tolloid-like protein 1, less than 126 nM in assay [1] and less than 200 nM in assay [2].
As for `CCCCC[C@H](CN(O)C=O)C(=O)NCNC(=O)c1ccc(-c2cccc(P(C)(=O)OCC)c2)o1` (some centres undefined), the half-maximal inhibitory concentration (IC50) at Tolloid-like protein 2 is less than 794 nM; on Tolloid-like protein 1 it was less than 398 nM; in assay [1], less than 126 nM; in assay [2] it was less than 200 nM.
As for `CCCCC[C@H](CN(O)C=O)C(=O)NCNC(=O)c1ccc(-c2cccc(S(=O)(=O)N(C)C)c2)o1`, the half-inhibitory concentration (IC50) at Tolloid-like protein 2 is less than 794 nM; on Tolloid-like protein 1, less than 398 nM; in assay [1], less than 126 nM; in assay [2] it was less than 200 nM.
The matching figures for `CS(=O)(=O)c1cccc(-c2ccc(C(=O)NCNC(=O)[C@H](CCc3ccccc3)CN(O)C=O)o2)c1`: less than 794 nM, less than 398 nM, less than 126 nM and less than 200 nM.
Take `CCCCC[C@H](CN(O)C=O)C(=O)NCNC(=O)c1ccc(-c2ccc(C#N)cc2)o1`: the IC50 is less than 794 nM on Tolloid-like protein 2, less than 398 nM on Tolloid-like protein 1, less than 126 nM in assay [1] and less than 200 nM in assay [2].
On to `CCCCC[C@@H](C(=O)NCNC(=O)c1ccc(-c2cc(OCC)cc(P(=O)(O)O)c2)o1)[C@@H](CC)N(O)C=O.NC(CO)(CO)CO`, for which the pIC50 in assay [1] is greater than 6.9.
Turning to `CCCCC[C@H](CN(O)C=O)C(=O)NCNC(=O)c1ccc(-c2cccc(C#N)c2)o1`, the IC50 is less than 794 nM at Tolloid-like protein 2, less than 398 nM on Tolloid-like protein 1, less than 126 nM in assay [1] and less than 200 nM in assay [2].
Take `CCOc1cc(C(=O)O)cc(-c2ccc(C(=O)NCNC(=O)CCN(O)C=O)o2)c1`: the IC50 is less than 398 nM at Tolloid-like protein 1, less than 126 nM in assay [1] and less than 200 nM in assay [2].
As to `CCCCC[C@H](CN(O)C=O)C(=O)NCNC(=O)c1ccc(-c2cncc(OC)c2)o1`, the half-maximal inhibitory concentration (IC50) at Tolloid-like protein 2 is less than 794 nM; on Tolloid-like protein 1 it was less than 398 nM; in assay [1], less than 126 nM; in assay [2], less than 200 nM.
The matching figures for `CCCCC[C@H](CN(O)C=O)C(=O)NCNC(=O)c1ccc(-c2ccccc2O)o1`: less than 794 nM, less than 398 nM, less than 126 nM and less than 200 nM.
In the case of `O=CN(O)C[C@@H](CC1CCCC1)C(=O)NCNC(=O)c1ccc(-c2ccccc2)o1`, the IC50 is less than 794 nM at Tolloid-like protein 2, less than 398 nM on Tolloid-like protein 1, less than 126 nM in assay [1] and less than 200 nM in assay [2].
Turning to `O=CN(O)C[C@@H](CCCc1ccccc1)C(=O)NCNC(=O)c1ccc(-c2ccccc2)o1`, the IC50 at Tolloid-like protein 2 is less than 794 nM; at Tolloid-like protein 1, less than 398 nM; in assay [1], less than 126 nM; in assay [2] it was less than 200 nM.
Consider `CCCCC[C@H](CN(O)C=O)C(=O)NCNC(=O)c1ccc(-c2cccc(C(=O)NC)c2)o1`, for which the IC50 is less than 794 nM at Tolloid-like protein 2, less than 398 nM at Tolloid-like protein 1, less than 126 nM in assay [1] and less than 200 nM in assay [2].
Take `CCCCC[C@H](CN(O)C=O)C(=O)NCNC(=O)c1ccc(-c2cccc(OC)n2)o1`: the concentration for half-maximal inhibition (IC50) on Tolloid-like protein 2 was less than 794 nM; on Tolloid-like protein 1, less than 398 nM; in assay [1] it was less than 126 nM; in assay [2], less than 200 nM.
